Among the test systems are U251 CNS; NCI-H460 lung; HL-60(TB) leukemia; OVCAR-4 ovarian; LOX IMVI melanoma; COLO 205 colon; EKVX NSCLC; ACHN renal; KM12 colon; OVCAR-3 ovarian.
Common to all, as to assay: DTP human tumour cell line panel, 48 h

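A five-concentration, 48-hour dose response in 96-well plates underlies each endpoint, interpolated linearly between surrounding concentrations. GI50 is the concentration that inhibits growth by half. At the TGI there is no net growth.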 Some results are limits rather than exact numbers.

For the compound `CCN(CC)CCOc1ccccc1-n1c(C)ccc1-c1ccccc1`, the GI50 is 13.4 µM in the experiment on U251 CNS; 18.2 µM with NCI-H460 lung; 20.5 µM in the experiment on HL-60(TB) leukemia; 12.2 µM in the experiment with OVCAR-4 ovarian; 17.5 µM in the experiment with LOX IMVI melanoma; 9.9 µM with COLO 205 colon. The GI50 was 15.8 µM in the experiment with EKVX NSCLC, 15.5 µM in the experiment with ACHN renal, 17.2 µM in the experiment on KM12 colon and 15.6 µM in the experiment on OVCAR-3 ovarian. Further, the TGI stood at 27.4 µM in the experiment with U251 CNS; 38 µM in the experiment on NCI-H460 lung; 40.6 µM in the experiment on HL-60(TB) leukemia; 25.7 µM in the experiment on OVCAR-4 ovarian; 34.5 µM in the experiment with LOX IMVI melanoma; 22.5 µM with COLO 205 colon. Besides, the TGI in the experiment on EKVX NSCLC stood at 33.6 µM; in the experiment on ACHN renal, 30.3 µM; in the experiment on KM12 colon, 32.5 µM; in the experiment with OVCAR-3 ovarian it was 30.1 µM.
Take `CC(=O)OCCC/C(=C/c1cc2ccccc2c2ccccc12)[N+](=O)[O-]`: the GI50 with U251 CNS is 1.43 µM; in the experiment on NCI-H460 lung, 1.71 µM; in the experiment with HL-60(TB) leukemia, 1.43 µM; in the experiment with OVCAR-4 ovarian, 1.75 µM; with LOX IMVI melanoma it was 0.423 µM; in the experiment on COLO 205 colon, 1.67 µM. Besides, the GI50 with EKVX NSCLC is 1.42 µM; with ACHN renal, 1.64 µM; in the experiment with KM12 colon, 1.56 µM; in the experiment with OVCAR-3 ovarian, 0.814 µM. Besides, the TGI in the experiment on U251 CNS stood at 2.74 µM; in the experiment on NCI-H460 lung, 3.14 µM; in the experiment with HL-60(TB) leukemia, 4.57 µM; in the experiment with OVCAR-4 ovarian, 3.29 µM; in the experiment on LOX IMVI melanoma it was 1.08 µM; in the experiment with COLO 205 colon, 3.03 µM. For the same compound, the TGI is 3.67 µM in the experiment on EKVX NSCLC, 3 µM in the experiment on ACHN renal, 2.89 µM with KM12 colon and 2.13 µM with OVCAR-3 ovarian.
In the case of `O=C(CC(=O)c1cccc2ccccc12)C(=O)Nc1nccs1`, the TGI in the experiment with U251 CNS, with NCI-H460 lung, in the experiment with HL-60(TB) leukemia, in the experiment with OVCAR-4 ovarian, in the experiment on LOX IMVI melanoma and in the experiment on COLO 205 colon was above 100 µM throughout. For the same compound, the TGI in the experiment on EKVX NSCLC, in the experiment on ACHN renal, with KM12 colon and in the experiment with OVCAR-3 ovarian was above 100 µM each time.
Take `CC/C(=N/O)C(C)C(=O)CCC(=O)Nc1ccc(Cl)cc1` (stereo not given): the TGI in the experiment on U251 CNS, in the experiment on NCI-H460 lung, with HL-60(TB) leukemia, in the experiment with OVCAR-4 ovarian, with LOX IMVI melanoma and in the experiment on COLO 205 colon was above 100 µM throughout. The TGI with EKVX NSCLC, in the experiment with ACHN renal, with KM12 colon and in the experiment on OVCAR-3 ovarian was above 100 µM in each case.
Regarding `Cc1ccc(Nn2c(SCC(=O)Nc3nc(-c4ccccc4)cs3)nc(C)c2C)cc1`, the GI50 in the experiment with U251 CNS is 4.5 µM; with NCI-H460 lung, 3.88 µM; in the experiment on HL-60(TB) leukemia, 4.64 µM; with OVCAR-4 ovarian it was 2.13 µM; in the experiment on LOX IMVI melanoma it was 3.32 µM; with COLO 205 colon it was 3.98 µM. Also, the GI50 in the experiment on EKVX NSCLC is 1.39 µM; with ACHN renal, 4.06 µM; with KM12 colon, 4.13 µM; with OVCAR-3 ovarian, 8.24 µM. Also, the TGI in the experiment with U251 CNS is above 100 µM; in the experiment on NCI-H460 lung, 16.5 µM; with HL-60(TB) leukemia it was 39.1 µM; with OVCAR-4 ovarian it was above 100 µM; in the experiment on LOX IMVI melanoma it was 19.3 µM; with COLO 205 colon, 34.4 µM. For the same compound, the TGI in the experiment with EKVX NSCLC is 5.61 µM; in the experiment with ACHN renal, 62.9 µM; in the experiment with KM12 colon, 19.1 µM; in the experiment on OVCAR-3 ovarian it was above 100 µM.
Take `NC1=C(/C(N)=N/O)C(c2ccccc2)c2ccc3ccccc3c2O1` (stereo not given): the GI50 in the experiment on U251 CNS is 0.41 µM; in the experiment on NCI-H460 lung it was 0.341 µM; in the experiment on HL-60(TB) leukemia, 0.275 µM; with OVCAR-4 ovarian, 0.831 µM; with LOX IMVI melanoma, 0.621 µM; in the experiment with COLO 205 colon it was 0.456 µM. Besides, the GI50 in the experiment with EKVX NSCLC is 1.01 µM; with ACHN renal, 0.458 µM; in the experiment with KM12 colon, 0.302 µM; in the experiment with OVCAR-3 ovarian, 0.225 µM. The TGI with U251 CNS is 19.8 µM; with NCI-H460 lung, 16.1 µM; in the experiment with HL-60(TB) leukemia it was 0.788 µM; in the experiment with OVCAR-4 ovarian, above 100 µM; in the experiment on LOX IMVI melanoma, 17.2 µM; in the experiment with COLO 205 colon it was 7.26 µM. Further, the TGI was above 100 µM in the experiment on EKVX NSCLC, 51.1 µM in the experiment with ACHN renal, 36.4 µM in the experiment with KM12 colon and 0.675 µM with OVCAR-3 ovarian.
`CN1CCN(c2ccc(NC(=O)c3cncnc3Nc3ccc4c(ccn4Cc4cccc(F)c4)c3)cc2)CC1`: the GI50 was 1.3 µM with U251 CNS; 1.35 µM in the experiment on NCI-H460 lung; 0.673 µM in the experiment with HL-60(TB) leukemia; 3.97 µM in the experiment with OVCAR-4 ovarian; 0.591 µM in the experiment on LOX IMVI melanoma; 0.905 µM with COLO 205 colon. Also, the GI50 in the experiment on EKVX NSCLC was 4.78 µM; in the experiment on ACHN renal, 1.73 µM; with KM12 colon, 2.33 µM; with OVCAR-3 ovarian, 4.08 µM. For the same compound, the TGI was found to be 4.92 µM with U251 CNS; 4.99 µM in the experiment with NCI-H460 lung; 1.4 µM in the experiment on HL-60(TB) leukemia; 8.66 µM with OVCAR-4 ovarian; 1.16 µM in the experiment with LOX IMVI melanoma; 2.64 µM in the experiment on COLO 205 colon. For the same compound, the TGI was found to be 9.37 µM in the experiment on EKVX NSCLC, 5.89 µM in the experiment with ACHN renal, 6.76 µM in the experiment with KM12 colon and 8.48 µM with OVCAR-3 ovarian.
As to `COc1cc(-c2cn(-c3ccc(F)cc3)c(=O)[nH]2)cc(OC)c1OC`, the GI50 in the experiment with U251 CNS, with NCI-H460 lung, in the experiment on HL-60(TB) leukemia, with OVCAR-4 ovarian, in the experiment with LOX IMVI melanoma and with COLO 205 colon was above 100 µM in each case. Besides, the GI50 in the experiment on EKVX NSCLC, with ACHN renal, in the experiment with KM12 colon and with OVCAR-3 ovarian was above 100 µM each time. Further, the TGI in the experiment with U251 CNS, with NCI-H460 lung, with HL-60(TB) leukemia, in the experiment on OVCAR-4 ovarian, with LOX IMVI melanoma and in the experiment on COLO 205 colon was above 100 µM each time. For the same compound, the TGI in the experiment on EKVX NSCLC, in the experiment with ACHN renal, in the experiment on KM12 colon and in the experiment with OVCAR-3 ovarian was above 100 µM each time.
For `COc1ccccc1C(=O)Nc1ccc(Cl)c(C(=O)OC(C)C)c1`, the TGI with U251 CNS was above 100 µM; in the experiment on NCI-H460 lung, above 100 µM; in the experiment with HL-60(TB) leukemia, above 65.2 µM; in the experiment with OVCAR-4 ovarian it was above 100 µM; with LOX IMVI melanoma, above 62.3 µM; with COLO 205 colon, above 100 µM. The TGI is above 100 µM in the experiment with EKVX NSCLC, 28.4 µM in the experiment on ACHN renal, above 100 µM with KM12 colon and above 65.4 µM in the experiment with OVCAR-3 ovarian.

One may read the GI50 as the concentration at which growth is held to half of that of the control. One may read the TGI as the concentration at which net growth stops. Read a high TGI as less potent growth arrest.

For the origin of these results see PubChem BioAssay (NCI).
